In PubChem BioAssay (NCI):
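Results reflect a 48-hour exposure of cells in 96-well plates to compound at five concentrations. GI50 = concentration required for 50% inhibition of growth. The concentration for full growth arrest is given as TGI.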

Columns and labels:
Test in all cases: growth of human tumour cells (NCI), 48 h
SN12C renal = system: SN12C renal
HOP-92 NSCLC = system: HOP-92 NSCLC
NCI-H23 lung = system: NCI-H23 lung
SK-MEL-5 melanoma = system: SK-MEL-5 melanoma
CAKI-1 renal = system: CAKI-1 renal
UACC-257 melanoma = system: UACC-257 melanoma
SR leukemia = system: SR leukemia
NCI-H460 lung = system: NCI-H460 lung
SW-620 colon = system: SW-620 colon
M14 melanoma = system: M14 melanoma

| Molecule | GI50 (SN12C renal) [µM] | TGI (SN12C renal) [µM] | GI50 (HOP-92 NSCLC) [µM] | TGI (HOP-92 NSCLC) [µM] | GI50 (NCI-H23 lung) [µM] | TGI (NCI-H23 lung) [µM] | GI50 (SK-MEL-5 melanoma) [µM] | TGI (SK-MEL-5 melanoma) [µM] | GI50 (CAKI-1 renal) [µM] | TGI (CAKI-1 renal) [µM] | GI50 (UACC-257 melanoma) [µM] | TGI (UACC-257 melanoma) [µM] | GI50 (SR leukemia) [µM] | TGI (SR leukemia) [µM] | GI50 (NCI-H460 lung) [µM] | TGI (NCI-H460 lung) [µM] | GI50 (SW-620 colon) [µM] | TGI (SW-620 colon) [µM] | GI50 (M14 melanoma) [µM] | TGI (M14 melanoma) [µM] |
| --- | --- | --- | --- | --- | --- | --- | --- | --- | --- | --- | --- | --- | --- | --- | --- | --- | --- | --- | --- | --- |
| COc1ccc2c(c1)/C(=C\c1c(Cl)n(C)c3ccccc13)C(=O)N2 | 2.57 | 20.1 | 5.5 | 29.4 | 1.99 | 11.4 | 0.76 | 7 | 1.1 | 13.6 | 1.87 | 13.3 | 0.157 | 0.605 | 0.459 | 15.9 | 1.13 | 17.1 | 1.61 | 23.8 |
| CC1OC(n2c3ccccc3c3c4c(c5c6ccccc6[nH]c5c32)C(=O)N(CCN2CCOCC2)C4=O)CC(O)C1O (configuration not stated) | 1.75 | 7.47 | 7.77 | 15.8 | 2 | 11.1 | 1.59 | 6.29 | 1.44 | 6.37 | 6.11 | 14.5 | 0.257 | 14.5 | 0.734 | 5.27 | 1.07 | 8.78 | 1.43 | 5.95 |
| CCOC(=O)C(=O)Nc1c(C)cccc1C(C)C |  | > 100 |  | > 100 |  | > 100 |  | > 100 |  | > 100 |  | > 100 |  | > 100 |  | > 100 |  | > 100 |  | > 100 |
| Cc1nn(-c2ccccc2)c2nc3c(nc12)C1=NCCN1C(c1ccc(Cl)cc1)N3 (configuration not stated) | 11.4 | 25.2 | 2 | 9.69 | 15.3 | 31.6 | 1.57 | 3.12 | 13.2 | 27.3 | 1.79 | 3.49 | 2.48 | 6.32 | 2.19 | 5.03 | 1.9 | 3.96 | 1.98 | 3.86 |
| COc1ccc(NC(=O)CC(=O)N2N=C(N(CCC#N)c3cccc(C)c3)CC2c2ccccc2)cc1 (configuration not stated) |  | > 100 |  | > 100 |  | > 100 |  | > 100 |  | > 100 |  | > 100 |  | > 100 |  | > 100 |  | > 100 |  | > 100 |
| CC(C(=O)O)/C(=C\c1ccc2c(c1)OCO2)C(=O)O (configuration not stated) |  | > 100 |  | > 100 |  | > 100 |  | > 100 |  | > 100 |  | > 100 |  | > 100 |  | > 100 |  | > 100 |  | > 100 |
| CC(C)n1c(=O)n(C)c2cnc3cc(F)c(-c4ccc(OCCCN5CCCCC5)nc4)cc3c21 | 7.14 | 42.8 | 1.2 | 9.36 | 16.5 | > 100 | 6.41 | 19.1 | 22.9 | > 100 | 16.4 | 36.8 | 5.76 | 32.2 | 11.3 | 29.4 | 14.3 | 42.3 | 14.6 | 31.6 |
| COc1ccc(OC)c(/C=C2\COc3ccc(O)c(O)c3C2=O)c1 | 2.55 | 11.7 | 2.8 | 8.86 | 2.44 | 7.3 | 1.75 | 3.28 | 2.08 | 5.73 | 2.43 | 7.82 | 1.36 | > 100 | 2.07 | 5.61 | 2.22 | 5.98 | 2.09 | 6.9 |
| H-HIIKKIRTWYRKAWHVLGKV-NH2 | 2.96 | 13 | 2.11 | 6.75 | 4.94 | 31.1 | 3.94 | 19.5 | 3.32 | 18.3 | 8.48 | 59.6 | 7.13 | 87.8 | 3.34 | 92.4 | 9.53 | > 100 | 4.17 | 22.8 |
| O=C(O)CP(=O)(O)O |  | > 100 |  | > 100 |  | > 100 |  | > 100 |  | > 100 |  | > 100 |  | > 100 |  | > 100 |  | > 100 |  | > 100 |
| N#Cc1c(N)nc(NCc2ccccc2)c(C#N)c1-c1ccccc1Cl | 4.53 | 25.1 | 3.57 | 25.5 | 17.5 | > 100 | 51.3 | > 100 | 14.6 | > 100 | > 100 | > 100 | 10.8 | 32.8 | 4.99 | 30.1 | 18.9 | > 100 | 23.2 | > 100 |
| CC1(C)N=C(N)N=C(N)N1c1cccc(CCCCOc2ccccc2)c1 | 0.14 | 46.1 | 2.26 | 30.3 | 0.0664 | 81.4 | 0.423 | 5.29 | 2.7 | > 100 | 0.381 | 23.5 | < 0.011 | 20.7 | < 0.01 | 12.4 | 0.0164 | > 100 | 0.0958 | > 41.3 |
| CCC(c1ccc2cc(O)ccc2c1)C(C)(C)C(=O)O (configuration not stated) |  | > 100 |  | > 100 |  | > 100 |  | > 100 |  | > 100 |  | > 100 |  | > 100 |  | > 100 |  | > 100 |  | > 100 |
| Cc1cc(=O)oc2c(OS(C)(=O)=O)c(OS(C)(=O)=O)ccc12 |  | > 100 |  | > 100 |  | > 100 |  | > 100 |  | > 100 |  | > 100 |  | > 100 |  | > 100 |  | > 100 |  | > 100 |
| CCC[CH2][Sn]1([CH2]CCC)[O]CC(CN2CCOCC2)[O]1 (configuration not stated) | 5.02 | 16.7 | 3.7 | 14 | 2.41 | 6.13 | 5.4 | 18.2 | 1.36 | 6.51 | 4.29 | 15.1 | 1.56 | 6.13 | 13.6 | 26.5 | 1.99 | 5.44 | 2.86 | 10.3 |
| Brc1ccccc1C=NC12CC3CC(CC(C3)C1)C2 |  | > 63.1 |  | > 100 |  | > 100 |  | > 100 |  | > 100 |  | > 100 |  | > 28.2 |  | > 100 |  | > 100 |  | > 100 |
| CC(=O)OC1Oc2cc(C)c(C)cc2-c2oc(=O)c(-c3ccc(F)cc3)cc21 (configuration not stated) | 9.78 | > 100 | 3.1 | 16.9 | 4.41 | 42.7 | 3.35 | 17.2 | 15.8 | > 100 | 10.3 | 26 | 1.21 | 5.22 | 3.9 | 24.4 | 3.87 | 28.8 | 3.99 | > 100 |
| N=c1n(Cc2ccccc2)c(N)cc(=O)n1Cc1ccccc1 | 1.34 | 18.1 | 2.06 | 10 | 1.48 | 5.96 | 1.9 | 3.95 | 2.94 | 16.6 | 3.1 | 11 | 2.28 | 7.53 | 1.08 | 2.75 | 3.05 | 11.1 | 4.72 | 17.8 |
| S=C(c1ccc2c(c1)OCO2)N1CCN(c2cccc(Cl)c2)CC1 | 7.51 | > 100 | 95.4 | > 100 | 2.7 | > 100 | 0.454 | > 100 |  | > 100 |  | > 21.2 | 0.382 |  | 0.387 | > 74.7 | 0.404 | > 100 | 0.472 | > 100 |
| CCOC(=O)N[C@@H]1C2CC(=O)C(O2)[C@@H]1OC (some centres not stated) |  | > 100 |  | > 100 |  | > 100 |  | > 100 |  | > 100 |  | > 100 |  | > 100 |  | > 100 |  | > 100 |  | > 100 |
| CCOC(=O)c1c(Cl)c2c(n1Cc1cccc(OC)c1)-c1oncc1CC2 | 6.04 | > 100 | 9.24 | > 100 | 3.55 | 60.6 | 1.24 | 10.5 | 1.85 | > 100 | 6.41 | > 100 | 0.444 | 24.1 | 0.659 | 13.7 | 0.773 | > 100 | 2.07 | > 100 |
| Cc1[nH]nc2ccc3nc(-c4ccc5[nH]ncc5c4)c4c(c3c12)CCCC4 | 2.09 | 12.7 | 1.91 | 6 | 2.22 | 11.2 | 1.92 | 5 | 0.535 | 12 | 1.68 | 6.63 | 0.525 | 25.7 | 0.832 | 11.2 | 0.494 | 8.79 | 0.604 | 13.3 |
